{"source": "patent EP0655506B1", "about": "(priority 1994, dated 1995)", "key": {"[1]": {"molecular_target": "T1, HIV reverse transcriptase, change of Glu 89 to Glycine (Human immunodeficiency virus type 1 group M subtype B, UniProt P04585, E676G)", "T1 construct": "glu-89 of human immunodeficiency virus type 1 reverse transcriptase", "details": "relative to the unmutated enzyme; cited from earlier work"}, "[2]": {"molecular_target": "T2, E. coli DNA polymerase I mutant Pol I C-K6 (F762Y), R R S A K A I N Y G L I Y G (Escherichia coli, UniProt P00582, F762Y)", "T2 construct": "the large fragment of E. coli DNA polymerase I (Klenow fragment); made in house; crude lysate, renatured in gel", "T2 sequence (P00582 324-928 F762Y)": "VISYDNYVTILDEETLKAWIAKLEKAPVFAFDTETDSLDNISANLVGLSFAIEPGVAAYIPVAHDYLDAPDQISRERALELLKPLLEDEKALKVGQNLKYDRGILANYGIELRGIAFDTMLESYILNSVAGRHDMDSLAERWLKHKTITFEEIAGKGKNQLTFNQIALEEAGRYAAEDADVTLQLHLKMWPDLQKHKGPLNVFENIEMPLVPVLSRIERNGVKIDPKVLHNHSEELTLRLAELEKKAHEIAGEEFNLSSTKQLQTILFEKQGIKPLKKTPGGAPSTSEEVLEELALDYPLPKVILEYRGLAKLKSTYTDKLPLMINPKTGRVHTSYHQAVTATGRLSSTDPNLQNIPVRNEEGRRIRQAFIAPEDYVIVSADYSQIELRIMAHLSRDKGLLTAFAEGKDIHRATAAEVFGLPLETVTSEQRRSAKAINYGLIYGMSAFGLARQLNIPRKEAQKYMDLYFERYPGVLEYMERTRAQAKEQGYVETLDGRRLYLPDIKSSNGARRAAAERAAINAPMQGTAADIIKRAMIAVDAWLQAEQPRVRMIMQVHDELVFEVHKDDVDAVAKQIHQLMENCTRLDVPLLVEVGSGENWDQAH", "assay": "SDS activity gel analysis, incorporation of ddNMP relative to dNMP (Example 2)", "type": "biochemical", "protocol": "(§1) Mutant DNA polymerases are screened for their ability to incorporate dideoxynucleotides by SDS activity gel analysis. The procedure is a modification of that described by Spanos and Hübscher 91 Methods in Enzymology 263, 1983 and Karawya et al. 135 Analytical Biochemistry 318, 1983. Briefly, 10 ml of cells are induced for 4 to 6 hours and then pelleted. The cell pellet is resuspended in 0.3 ml 25 mM Tris HCl, pH 7.0, 5 mM EDTA. 20 µl of the resuspended cells are mixed with 40 µl of a solution of 1% SDS (sodium dodecyl sulfate), 2% mercaptoethanol, 30 % glycerol, 0.04% bromphenol blue, and 100 mM TrisHCl, pH 6.8. The mixtures are incubated at 37 °C for 5 min, and then 20 µl aliquots are loaded in duplicate onto two SDS polyacrylamide gels. The SDS polyacrylamide gels consist of a resolving gel that contains 8% polyacrylamide, 0.27% bisacrylamide, 190 mM TrisHCl, pH 8.8, 0.05% SDS, and 25 µg/ml denatured salmon sperm DNA, and a stacking gel that consists of 5% polyacrylamide, 0.17% bisacrylamide, 150 mM TrisHCl, pH 6.8, and 0.1% SDS. The two gels are electrophoresed at 100 V for 13 hr at a constant temperature of 13 °C in an electrophoresis buffer consisting of 190 mM TrisHCl and pH 8.8, 0.05% SDS.\n(§2) After electrophoresis, the gels are washed over 8 hr in 4 changes of 500 ml each of Renaturation Buffer (50 mM Tris.HCl, pH 7.5, 5 mM magnesium acetate, 1 mM dithiothreitol, 40 mM KCI, 400 µg/ml bovine serum albumin, 16% glycerol and 0.95 mM EDTA) at 4 °C.\n(§3) The renatured proteins are assayed for DNA polymerase activity by incubating each of the two gels in 6 ml of Renaturation Buffer, 1.5 µM 4dNTPs, 4 µl of [a-^32P]dATP (800 Ci/mmol, 10 mCi/ml), and 80 µg of purified thioredoxin. One of the mixtures also contains 30 µM ddTTP (a 20-fold molar excess over dTTP). The mixtures are incubated for 4 hr at 37 °C (70 °C for 2 hr for thermophilic DNA polymerases).\n(§4) After incubation the gels are washed for 8 hr against four changes of 5% trichloracetic acid and 1% sodium pyrophosphate. The gels are then dried and autoradiographed.\n(§5) To determine whether a mutant DNA polymerase is discriminating more or less against ddTTP, the intensities of the radioactive bands are compared on the two gels that were incubated in the presence and absence of ddTTP, and the ratio of the signal in the two bands for the unmodified DNA polymerase is compared with the ratio of the signal in the two bands for each of the mutants."}, "[3]": {"molecular_target": "T3, E. coli DNA polymerase I mutant Pol I C-K3, R R S A K T F N F G L I Y G (Escherichia coli, UniProt P00582, A759T/I760F)", "T3 construct": "the large fragment of E. coli DNA polymerase I (Klenow fragment); made in house; crude lysate, renatured in gel", "T3 sequence (P00582 324-928 A759T/I760F)": "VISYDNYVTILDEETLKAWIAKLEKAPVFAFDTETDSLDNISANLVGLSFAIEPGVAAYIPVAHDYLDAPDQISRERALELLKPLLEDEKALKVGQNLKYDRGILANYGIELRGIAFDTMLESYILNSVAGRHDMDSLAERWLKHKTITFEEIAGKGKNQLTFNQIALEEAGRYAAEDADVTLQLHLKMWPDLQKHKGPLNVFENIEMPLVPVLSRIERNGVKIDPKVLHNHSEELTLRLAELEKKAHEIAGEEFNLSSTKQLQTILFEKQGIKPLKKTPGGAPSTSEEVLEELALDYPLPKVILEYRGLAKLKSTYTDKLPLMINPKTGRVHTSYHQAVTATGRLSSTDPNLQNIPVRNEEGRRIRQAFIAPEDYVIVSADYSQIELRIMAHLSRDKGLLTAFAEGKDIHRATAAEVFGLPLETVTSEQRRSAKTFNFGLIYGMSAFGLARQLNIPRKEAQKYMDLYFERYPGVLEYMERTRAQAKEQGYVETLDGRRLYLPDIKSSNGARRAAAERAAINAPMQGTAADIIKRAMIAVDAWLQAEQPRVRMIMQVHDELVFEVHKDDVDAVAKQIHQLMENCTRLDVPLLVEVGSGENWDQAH", "assay": "SDS activity gel analysis, incorporation of ddNMP relative to dNMP (Example 2)", "type": "biochemical", "details": "renatured enzyme in gel; 1.5 µM 4dNTPs with or without 30 µM ddTTP; 37 °C 4 hr", "protocol": "as §1, §2, §3, §4, §5"}, "[4]": {"molecular_target": "T4, T7 DNA polymerase mutant T7 C-T8 (Y526F), R D N A K T F I F G F L Y G (Escherichia phage T7, UniProt P00581, DEL118-145/Y526F)", "T4 construct": "made in house; host or cells: induced cells of a strain producing E. coli thioredoxin; crude lysate, renatured in gel", "T4 sequence (P00581 other isoform, or with tags, fused parts or gaps DEL118-145/Y526F)": "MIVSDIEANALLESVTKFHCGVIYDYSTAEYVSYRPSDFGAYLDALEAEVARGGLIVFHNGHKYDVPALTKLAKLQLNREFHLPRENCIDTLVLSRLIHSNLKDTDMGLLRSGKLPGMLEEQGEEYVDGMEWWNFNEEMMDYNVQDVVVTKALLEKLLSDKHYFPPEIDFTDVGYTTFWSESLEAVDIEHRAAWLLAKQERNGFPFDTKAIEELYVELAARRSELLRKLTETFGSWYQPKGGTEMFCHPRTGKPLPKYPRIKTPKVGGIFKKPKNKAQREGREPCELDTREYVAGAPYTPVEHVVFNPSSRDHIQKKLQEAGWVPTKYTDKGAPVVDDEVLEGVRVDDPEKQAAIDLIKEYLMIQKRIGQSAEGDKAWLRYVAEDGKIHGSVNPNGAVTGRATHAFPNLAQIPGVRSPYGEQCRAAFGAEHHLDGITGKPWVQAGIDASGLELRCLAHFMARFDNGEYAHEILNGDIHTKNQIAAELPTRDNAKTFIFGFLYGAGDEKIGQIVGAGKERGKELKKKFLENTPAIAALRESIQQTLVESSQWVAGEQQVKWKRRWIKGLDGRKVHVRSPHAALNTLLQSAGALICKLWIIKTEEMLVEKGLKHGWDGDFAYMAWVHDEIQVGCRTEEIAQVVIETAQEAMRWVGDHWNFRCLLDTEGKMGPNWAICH", "T4 sequence (P0AA25 2-109, stated change not applied, further chain)": "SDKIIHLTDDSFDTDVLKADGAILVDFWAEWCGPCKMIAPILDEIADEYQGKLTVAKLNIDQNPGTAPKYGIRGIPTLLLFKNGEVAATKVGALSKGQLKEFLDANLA", "assay": "SDS activity gel analysis, incorporation of ddNMP relative to dNMP (Example 2)", "type": "biochemical, bacteriophage T7", "protocol": "as §1, §2, §3, §4, §5"}, "[5]": {"molecular_target": "T5, T7 DNA polymerase mutant T7 C-T6, R D N A K T F N F G F L Y G (Escherichia phage T7, UniProt P00581, DEL118-145/I525N/Y526F)", "T5 construct": "made in house; host or cells: induced cells of a strain producing E. coli thioredoxin; crude lysate, renatured in gel", "T5 sequence (P0AA25 2-109, stated change not applied)": "as the sequence (P0AA25 2-109, stated change not applied, further chain) above", "T5 sequence (P00581 other isoform, or with tags, fused parts or gaps DEL118-145/I525N/Y526F)": "as the sequence (P00581 other isoform, or with tags, fused parts or gaps DEL118-145/Y526F) above, with I497N counted along it", "assay": "SDS activity gel analysis, incorporation of ddNMP relative to dNMP (Example 2)", "type": "biochemical, bacteriophage T7", "details": "renatured enzyme in gel; 1.5 µM 4dNTPs with or without 30 µM ddTTP; 37 °C 4 hr", "protocol": "as §1, §2, §3, §4, §5"}, "[6]": {"molecular_target": "T6, T7 DNA polymerase mutant T7 C-T5, R D N A K A I I Y G F L Y G (Escherichia phage T7, UniProt P00581, DEL118-145/F524I/T523A)", "T6 construct": "made in house; host or cells: induced cells of a strain producing E. coli thioredoxin; crude lysate, renatured in gel", "T6 sequence (P0AA25 2-109, stated change not applied)": "as the sequence (P0AA25 2-109, stated change not applied, further chain) above", "T6 sequence (P00581 other isoform, or with tags, fused parts or gaps DEL118-145/T523A/F524I)": "as the sequence (P00581 other isoform, or with tags, fused parts or gaps DEL118-145/Y526F) above, with T495A, F496I, F498Y counted along it", "assay": "SDS activity gel analysis, incorporation of ddNMP relative to dNMP (Example 2)", "type": "biochemical, bacteriophage T7", "details": "renatured enzyme in gel; 1.5 µM 4dNTPs with or without 30 µM ddTTP; 37 °C 4 hr", "protocol": "as §1, §2, §3, §4, §5"}, "[7]": {"molecular_target": "T7, T7 DNA polymerase, wild type (T7 WT), R D N A K T F I Y G F L Y G (Escherichia phage T7, UniProt P00581, DEL118-145)", "T7 construct": "made in house; host or cells: induced cells of a strain producing E. coli thioredoxin; crude lysate, renatured in gel", "T7 sequence (P00581 other isoform, or with tags, fused parts or gaps DEL118-145)": "as the sequence (P00581 other isoform, or with tags, fused parts or gaps DEL118-145/Y526F) above, with F498Y counted along it", "T7 sequence (P0AA25 2-109, stated change not applied, further chain)": "as the sequence (P0AA25 2-109, stated change not applied, further chain) above", "assay": "SDS activity gel analysis, incorporation of ddNMP relative to dNMP (Example 2)", "type": "biochemical, bacteriophage T7", "protocol": "as §1, §2, §3, §4, §5"}, "[8]": {"molecular_target": "T8, T7 DNA polymerase mutant T7 C-T3, R R S A K T F I Y G F L Y G (Escherichia phage T7, UniProt P00581, D519R/DEL118-145/N520S)", "T8 construct": "made in house; host or cells: induced cells of a strain producing E. coli thioredoxin; crude lysate, renatured in gel", "T8 sequence (P00581 other isoform, or with tags, fused parts or gaps DEL118-145/D519R/N520S)": "as the sequence (P00581 other isoform, or with tags, fused parts or gaps DEL118-145/Y526F) above, with D491R, N492S, F498Y counted along it", "T8 sequence (P0AA25 2-109, stated change not applied, further chain)": "as the sequence (P0AA25 2-109, stated change not applied, further chain) above", "assay": "SDS activity gel analysis, incorporation of ddNMP relative to dNMP (Example 2)", "type": "biochemical, bacteriophage T7", "details": "renatured enzyme in gel; 1.5 µM 4dNTPs with or without 30 µM ddTTP; 37 °C 4 hr", "protocol": "as §1, §2, §3, §4, §5"}, "[9]": {"molecular_target": "T9, T7 DNA polymerase mutant T7 C-T7, R D N A K T F N Y G F L Y G (Escherichia phage T7, UniProt P00581, DEL118-145/I525N)", "T9 construct": "made in house; host or cells: induced cells of a strain producing E. coli thioredoxin; crude lysate, renatured in gel", "T9 sequence (P0AA25 2-109, stated change not applied)": "as the sequence (P0AA25 2-109, stated change not applied, further chain) above", "T9 sequence (P00581 other isoform, or with tags, fused parts or gaps DEL118-145/I525N)": "as the sequence (P00581 other isoform, or with tags, fused parts or gaps DEL118-145/Y526F) above, with I497N, F498Y counted along it", "assay": "SDS activity gel analysis, incorporation of ddNMP relative to dNMP (Example 2)", "type": "biochemical, bacteriophage T7", "details": "renatured enzyme in gel; 1.5 µM 4dNTPs with or without 30 µM ddTTP; 37 °C 4 hr", "protocol": "as §1, §2, §3, §4, §5"}, "[10]": {"molecular_target": "T10, T7 DNA polymerase mutant T7 C-T4, R D N A K A I N F G F L Y G (Escherichia phage T7, UniProt P00581, DEL118-145/F524I/I525N/T523A/Y526F)", "T10 construct": "made in house; host or cells: induced cells of a strain producing E. coli thioredoxin; crude lysate, renatured in gel", "T10 sequence (P00581 other isoform, or with tags, fused parts or gaps DEL118-145/T523A/F524I/I525N/Y526F)": "as the sequence (P00581 other isoform, or with tags, fused parts or gaps DEL118-145/Y526F) above, with T495A, F496I, I497N counted along it", "T10 sequence (P0AA25 2-109, stated change not applied, further chain)": "as the sequence (P0AA25 2-109, stated change not applied, further chain) above", "assay": "SDS activity gel analysis, incorporation of ddNMP relative to dNMP (Example 2)", "type": "biochemical, bacteriophage T7", "details": "renatured enzyme in gel; 1.5 µM 4dNTPs with or without 30 µM ddTTP; 37 °C 4 hr", "protocol": "as §1, §2, §3, §4, §5"}, "[11]": {"molecular_target": "T11, T7 DNA polymerase mutant T7 C-T2, R R S A K A I N F G L I Y G (Escherichia phage T7, UniProt P00581, D519R/DEL118-145/F524I/F528L/I525N/L529I/N520S/T523A/Y526F)", "T11 construct": "made in house; host or cells: induced cells of a strain producing E. coli thioredoxin; crude lysate, renatured in gel", "T11 sequence (P00581 other isoform, or with tags, fused parts or gaps DEL118-145/D519R/N520S/T523A/F524I/I525N/Y526F/F528L/L529I)": "as the sequence (P00581 other isoform, or with tags, fused parts or gaps DEL118-145/Y526F) above, with D491R, N492S, T495A, F496I, I497N, F500L, L501I counted along it", "T11 sequence (P0AA25 2-109, stated change not applied, further chain)": "as the sequence (P0AA25 2-109, stated change not applied, further chain) above", "assay": "SDS activity gel analysis, incorporation of ddNMP relative to dNMP (Example 2)", "type": "biochemical, bacteriophage T7", "details": "renatured enzyme in gel; 1.5 µM 4dNTPs with or without 30 µM ddTTP; 37 °C 4 hr", "protocol": "as §1, §2, §3, §4, §5"}, "[12]": {"details": "renatured enzyme in gel, 1.5 µM 4dNTPs with or without 30 µM ddTTP, 37 °C 4 hr"}}}
{"smiles": "Nc1nc2c(ncn2[C@H]2CC[C@@H](COP(=O)(O)OP(=O)(O)OP(=O)(O)O)O2)c(=O)[nH]1", "note": "[ddGTP]", "values": [{"measurement": "ddGTP required to obtain same extent of inhibition", "setting": "[1]", "value": "about 10 times more"}]}
{"smiles": "Cc1cn([C@H]2CC[C@@H](COP(=O)(O)OP(=O)(O)OP(=O)(O)O)O2)c(=O)[nH]c1=O", "note": "[ddTTP]", "values": [{"measurement": "activity at 30 µM", "setting": "[2]; read-out: intensity of the bands in the presence of ddTTP relative to the absence of ddTTP", "value": "< 5", "unit": "%"}, {"measurement": "ddNTP Discrimination", "setting": "[2]; [12]", "value": "Low"}, {"measurement": "ddNTP Discrimination", "setting": "[3]", "value": "High"}, {"measurement": "intensity of the bands in the presence versus the absence of ddTTP", "setting": "[4]; 30 µM ddTTP (20-fold molar excess over dTTP), 1.5 µM 4dNTPs, within a factor of two", "value": "approximately the same intensity"}, {"measurement": "ddNTP Discrimination", "setting": "[4]; [12]", "value": "High"}, {"measurement": "ddNTP Discrimination", "setting": "[5]", "value": "High"}, {"measurement": "ddNTP Discrimination", "setting": "[6]", "value": "Low"}, {"measurement": "intensity of the bands in the presence of ddTTP relative to the absence of ddTTP", "setting": "[7]; 30 µM ddTTP (20-fold molar excess over dTTP), 1.5 µM 4dNTPs", "value": "< 5", "unit": "%"}, {"measurement": "ddNTP Discrimination", "setting": "[7]; [12]", "value": "Low"}, {"measurement": "ddNTP Discrimination", "setting": "[8]", "value": "Low"}, {"measurement": "ddNTP Discrimination", "setting": "[9]", "value": "Low"}, {"measurement": "ddNTP Discrimination", "setting": "[10]", "value": "High"}, {"measurement": "ddNTP Discrimination", "setting": "[11]", "value": "High"}]}
